# Data taken from patent US8039505B2, “Compounds for modulating T-cells” (University of Utah Research Foundation, priority 2007, dated 2011).
# Where “and” joins values, the source holds several entries; their conditions need not be identical. Equal entries are not always repeated. Where two headings read alike, the source gives them in different places.
# Test: Pharmacokinetics in male Swiss Albino mouse, intravenous and oral (LC-MS/MS of plasma)
# Assay type: in vivo
# Method: The pharmacokinetics of 1H-indole-3-carbaldehyde quinolin-8-ylhydrazone (Compound C3) was evaluated following intravenous (3 mg/kg) and oral (15 mg/kg) solution administration of 1H-indole-3-carbaldehyde quinolin-8-ylhydrazone in male Swiss Albino mouse. The effect of the Test Item, 1H-indole-3-carbaldehyde quinolin-8-ylhydrazone on complete blood count (CBC) was also evaluated. Pharmacokinetic phase consisted of two groups, Group 1 and Group 2. Animals in Group 1 were given intravenous bolus dose in a vehicle containing 5% N,N-dimethylacetamide, 5% CREMOPHOR™ EL and 90% Dextrose solution (5% w/v) and those in Group 2 were given oral solution dose in a vehicle, the composition of which was same as that of intravenous formulation. In addition, the effect of Test Item on complete blood count was evaluated following intravenous and oral dose administration along with its vehicle controls. A total of four groups were used each with 6 mice.
# From the pharmacokinetic group, predose samples were collected from 3 animals in each group. Following dose administration terminal blood samples were collected at each of the following time points (in triplicate): 0.083 (only for intravenous), 0.25, 0.5, 1, 2, 4, 8, 12 and 24 hours. At each time point, approximately 500 μL of whole blood was withdrawn from the retro orbital sinus and collected in labeled tubes containing dipotassium EDTA as anticoagulant (20 μL of 200 mM K2 EDTA solution per mL of blood). Plasma was separated by centrifuging the whole blood at about 2500 g for 10 minutes at 4° C. within 1 h of sample collection. Separated plasma was stored below minus 50° C. until bioanalysis. A sensitive LC-MS/MS method was used for the quantitation of 1H-indole-3-carbaldehyde quinolin-8-ylhydrazone. The lower limit of quantitation was 1.04 ng/mL. For CBC evaluation, approximately 500 μL of blood was collected in labeled tubes containing dipotassium EDTA as anticoagulant (10 […]/mL of blood) after 48 h of dose administration from all animals.
# A total of 57 mice were divided into an intravenous dose group of 30 mice (Group 1) and oral dose group of 27 mice (Group 2). Animals in Group 1 received intravenous bolus dose via tail vein at 3 mg/kg and animals in Group 2 received oral solution dose via gavage at 15 mg/kg. Three animals were administered the dose for each time point (intravenous: 10 time points; Oral: 9 time points). Terminal blood samples were collected from each mouse under light ether anesthesia and plasma was separated.
# Animals in Group 1 were administered an intravenous bolus dose via the tail vein (dosing volume: 6 mL/kg). Animals in Group 2 received oral dose by gavage with an oral dosing needle (dosing volume: 10 mL/kg). Animals in the CBC evaluation group were treated same as above except the animals in control group received vehicle instead of formulation.
# Pharmacokinetic group: Predose samples were collected from 3 animals in each group. Following dose administration terminal blood samples were collected at each of the following time points (in triplicate): 0.083 (only for intravenous), 0.25, 0.5, 1, 2, 4, 8, 12 and 24 hours. For each time point, approximately 500 μL of whole blood was withdrawn from the retro orbital sinus and collected in labeled tubes containing dipotassium EDTA as anticoagulant (20 μL of 200 mM K2 EDTA solution per mL of blood). Plasma was separated by centrifuging the whole blood at about 2500 g for 10 minutes at 4° C. within 1 h of sample collection. Separated plasma was stored below minus 50° C. until bioanalysis.
# An LC-MS/MS method was developed and employed for the quantitation of 1H-indole-3-carbaldehyde quinolin-8-ylhydrazone in the mouse plasma samples. The samples were prepared for analysis following liquid-liquid extraction using amodiaquin as internal standard. The lower limit of quantitation was 1.04 ng/mL.
# Pharmacokinetic parameters were calculated using non-compartmental analysis tool of WINNONLIN™ Enterprise software (Version 5.1.1). […]
# [1] = male, Swiss Albino, mouse, plasma, iv, 3 mg/kg, mouse, intravenous bolus 3 mg/kg, N = 3, read-out: Mean plasma concentration
# [2] = male, Swiss Albino, mouse, plasma, iv, 3 mg/kg, mouse, intravenous bolus 3 mg/kg, individual mice, LLOQ 1.04 ng/mL, read-out: Individual plasma concentration
# [3] = male, Swiss Albino, mouse, plasma, oral, 15 mg/kg, mouse, oral solution 15 mg/kg, N = 3, read-out: Mean plasma concentration
# [4] = male, Swiss Albino, plasma, mouse, IV 3 mg/kg
# [5] = male, Swiss Albino, plasma, mouse, oral solution 15 mg/kg
smiles,measurement,setting,value
"C(=NNc1cccc2cccnc12)c1c[nH]c2ccccc12 [Compound C3, 1H-indole-3-carbaldehyde quinolin-8-ylhydrazone]",concentration at 0.5 h,"male, Swiss Albino, mouse, plasma, iv, 3 mg/kg, intravenous bolus 3 mg/kg, N = 3",0.292 µg/mL
same,concentration at 0.083 h,"male, Swiss Albino, mouse, plasma, iv, 3 mg/kg, mouse plasma, IV 3 mg/kg, 0.083 h sample, read-out: Initial conc. (repeat analysis)",0.0473 µg/mL
same,concentration at 0.083 h,"male, Swiss Albino, mouse, plasma, iv, 3 mg/kg, mouse plasma, IV 3 mg/kg, 0.083 h sample, read-out: Repeated conc. (repeat analysis)",0.0756 µg/mL
same,concentration at 0.25 h,"male, Swiss Albino, mouse, plasma, iv, 3 mg/kg, mouse plasma, IV 3 mg/kg, 0.25 h samples, read-out: Initial conc. (repeat analysis)",0.13 µg/mL
same,concentration at 0.25 h,"male, Swiss Albino, mouse, plasma, iv, 3 mg/kg, mouse plasma, IV 3 mg/kg, 0.25 h samples, read-out: Repeated conc. (repeat analysis)",0.2 µg/mL
same,half-life,"male, Swiss Albino, mouse, plasma, iv, 3 mg/kg, mouse, IV 3 mg/kg, read-out: T1/2 (converted)",1.67 h
same,half-life,"male, Swiss Albino, mouse, plasma, iv, 3 mg/kg, mouse, following intravenous administration 3 mg/kg, read-out: Half-life (converted)",~1.7 h
same,concentration at 0.083 h,"male, Swiss Albino, mouse, plasma, iv, 3 mg/kg, mouse, intravenous bolus 3 mg/kg, 0.083 h, N = 2, read-out: Mean plasma concentration",1.69 µg/mL
same,concentration at 0.25 h,"male, Swiss Albino, mouse, plasma, iv, 3 mg/kg, mouse, intravenous bolus 3 mg/kg, 0.25 h, N = 3, read-out: Mean plasma concentration",0.244 µg/mL
same,concentration at 0.25 h,"male, Swiss Albino, mouse, plasma, iv, 3 mg/kg, mouse, intravenous bolus 3 mg/kg, 0.25 h, individual mice, LLOQ 1.04 ng/mL, read-out: Individual plasma concentration",0.2 µg/mL
same,concentration at 1 h,[1],0.147 µg/mL
same,concentration at 1 h,[2],0.116 µg/mL
same,concentration at 2 h,[1],0.0652 µg/mL
same,concentration at 2 h,[2],0.0719 µg/mL
same,concentration at 4 h,[1],0.0359 µg/mL
same,concentration at 4 h,[2],0.0424 µg/mL
same,concentration at 8 h,[1],0.00895 µg/mL
same,concentration at 8 h,[2],0.0101 µg/mL
same,concentration at 12 h,[1],0.00129 µg/mL
same,concentration at 12 h,"male, Swiss Albino, mouse, plasma, iv, 3 mg/kg, mouse, intravenous bolus 3 mg/kg, individual mice, BLQ = below LLOQ 1.04 ng/mL, read-out: Individual plasma concentration",0.00168 µg/mL
same,bioavailability,"male, Swiss Albino, mouse, plasma, oral, 15 mg/kg, mouse, oral 15 mg/kg vs IV 3 mg/kg, read-out: F, absolute oral solution bioavailability",~26%
same,concentration at 0.25 h,"male, Swiss Albino, mouse, plasma, oral, 15 mg/kg, mouse, oral solution 15 mg/kg, 0.25 h, N = 3, read-out: Mean plasma concentration",0.14 µg/mL
same,concentration at 1 h,[3],0.199 µg/mL
same,concentration at 2 h,[3],0.0965 µg/mL
same,concentration at 4 h,[3],0.146 µg/mL
same,concentration at 8 h,[3],0.0753 µg/mL
same,concentration at 8 h,"male, Swiss Albino, mouse, plasma, oral, 15 mg/kg, mouse, oral solution 15 mg/kg, individual mice, LLOQ 1.04 ng/mL, read-out: Individual plasma concentration",0.0767 µg/mL
same,concentration at 12 h,[3],0.00891 µg/mL
same,concentration at 0.5 h,"male, Swiss Albino, mouse, plasma, oral, 15 mg/kg, oral solution 15 mg/kg, N = 3",0.148 µg/mL
same,half-life,"male, Swiss Albino, mouse, plasma, po, 15 mg/kg, mouse, oral solution 15 mg/kg, read-out: T1/2 (converted)",1.98 h
same,AUC,[4],0.913 µg·h/mL
same,AUC(0-t),[4],0.909 µg·h/mL
same,Cmax,[4],1.69 µg/mL
same,clearance,[4],3.29 L/h/kg
same,Tmax,"male, Swiss Albino, plasma, mouse, IV 3 mg/kg, first sampling point",0.083 h
same,Vd,"male, Swiss Albino, plasma, mouse, IV 3 mg/kg, read-out: Vds. (volume of distribution)",4.28 L/kg
same,AUC,[5],1.17 µg·h/mL
same,AUC(0-t),[5],1.14 µg·h/mL
same,Cmax,[5],0.199 µg/mL
same,Tmax,[5],1 h
same,Accepted conc. (repeat analysis),"mouse plasma, IV 3 mg/kg, 0.083 h sample",75.62 c ng/mL
same,Accepted conc. (repeat analysis),"mouse plasma, IV 3 mg/kg, 0.25 h samples, listed as ICQH, 3 mg/kg",199.60 c ng/mL and 225.35 c ng/mL
